# Like-named read-outs stand apart in the source and are kept apart here.
# Legend:
# [1] = system: CF1 male mice on atherogenic diet; test: Testing in atherogenic mice; type: in vivo, mouse; settings: 12 days
# Protocol: CF1 male mice (~25 g) were placed on a commercial diet (the U.S. Biochemical Corporation Basel Atherogenic Test Diet) which contained butterfat (400 g), celufil (cellulose; 60 g), cholesterol (53 g), choline dihydrogen citrate (4 g), salt mixture oil (Wesson; 40 g), sodium cholate (20 g), sucrose (223 g), vitamin free casein (200 g) and total vitamin supplement for 10 days. After the cholesterol and triglyceride levels were assayed and observed to be elevated, the mice were administered test drugs at 10 mg/kg/day intraperitoneally for an additional 12-day period. Serum cholesterol and triglyceride levels were measured after 12 days of administration of the drugs.
# [2] = system: inosinic acid dehydrogenase; test: In vivo inosinic acid dehydrogenase activity; parameters: species or system mouse
# Protocol: CF1 male mice (~30 g) were implanted with 2×10^6 Ehrlich ascites tumor cells, intraperitoneally on Day 0. Compound I was suspended by homogenation in 0.05% polysorbate.80-water and administered intraperitoneally at 10 and 20 mg/kg for 9 days to determine its effectiveness for inhibition of tumor growth. Mice were sacrificed on Day 10, and the ascites fluid was collected from the peritoneal cavity. The volume and ascrit (packed cell volume) were determined for each animal and the percent inhibition of tumor growth was calculated. For the metabolic studies, mice were treated on Days 8 and 9 with 10 mg/kg of Compound I, intraperitoneally. […]
# Carbamyl phosphate synthetase activity was determined using the reaction medium of Kalman et al [Am. […] Citrulline formed from ornithine was measured at 490 nm by the method of Archibald [J. Biol. Chem., 156, 121 (1944)]. […] The ^14 CO2 generated in 15 min was trapped in 1M KOH and counted. Thymidylate synthetase activity was determined using a post-mitochondrial supernatant (9000 g×10 min) and 5 μCi of 5-^3 H-deoxyuridine monophosphate (14 Ci/mmol) according to the method of Kampf et al [ J. Med. Chem., 19, 903 (1976)]. ^14 C-Formate incorporation into purines was determined by the method of Spassova et al [Biochem. Pharmacol., 25, 923 (1976)] using 0.5 μCi of ^14 C-formic acid (52.0 mCi/mmol). […] The Rf value for xanthine monophosphate was scraped and counted. […]
substance,measurement,setting,value
{Cu[(CH3)3 N.BH2 CO2 ]2.(CH3)3 N.BH2 COOH} [Compound I],serum cholesterol level after drug administration,[1]; hyperlipidemic induced mice (354 mg % before),148 mg %
same,serum cholesterol levels reduced,"[1]; hyperlipidemic induced mice, 10 mg/kg/day i.p.",59%
same,serum triglyceride levels lowered,"[1]; hyperlipidemic mice, 10 mg/kg/day i.p.",67%
same,Inosinic acid dehydrogenase activity,[2],essentially not affected
same,Inosinic acid dehydrogenase activity,[2]; 10 mg/kg/day I.P. on Days 8 and 9,100 ± 9 % Control

# — patent US4550186A, “Binuclear copper (II) carboxylates formed from amine-carboxyboranes” (Duke University, priority 1983, dated 1985)
